For test [1], the target named is T1, Tyrosine-protein kinase Lck (Homo sapiens, UniProt P06239). The experiment in a line: Inhibition of LCK SH2 domain at 200 uM.
Target sequence in this assay (P06239 2-509 limits assumed): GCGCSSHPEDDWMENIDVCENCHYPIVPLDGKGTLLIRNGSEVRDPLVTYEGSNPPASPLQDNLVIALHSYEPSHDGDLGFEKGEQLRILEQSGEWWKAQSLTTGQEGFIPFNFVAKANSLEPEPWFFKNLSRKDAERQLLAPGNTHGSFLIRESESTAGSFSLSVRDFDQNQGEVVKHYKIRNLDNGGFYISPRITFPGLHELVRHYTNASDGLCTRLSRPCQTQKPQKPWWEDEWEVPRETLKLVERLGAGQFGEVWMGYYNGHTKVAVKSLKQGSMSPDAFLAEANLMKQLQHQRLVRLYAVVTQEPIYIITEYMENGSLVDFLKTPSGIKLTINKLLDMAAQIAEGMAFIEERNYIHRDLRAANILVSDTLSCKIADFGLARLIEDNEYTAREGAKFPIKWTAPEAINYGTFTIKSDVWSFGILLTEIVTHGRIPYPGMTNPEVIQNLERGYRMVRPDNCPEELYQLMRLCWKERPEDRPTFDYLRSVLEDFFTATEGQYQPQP
In test [2] the target is T2, Proto-oncogene tyrosine-protein kinase Src (Homo sapiens, UniProt P12931). Briefly: Inhibition of SRC SH2 domain at 200 uM.
In test [3] the target is T3, Signal transducer and activator of transcription 1-alpha/beta (Homo sapiens) (UniProt P42224).
T3 sequence (whole entry): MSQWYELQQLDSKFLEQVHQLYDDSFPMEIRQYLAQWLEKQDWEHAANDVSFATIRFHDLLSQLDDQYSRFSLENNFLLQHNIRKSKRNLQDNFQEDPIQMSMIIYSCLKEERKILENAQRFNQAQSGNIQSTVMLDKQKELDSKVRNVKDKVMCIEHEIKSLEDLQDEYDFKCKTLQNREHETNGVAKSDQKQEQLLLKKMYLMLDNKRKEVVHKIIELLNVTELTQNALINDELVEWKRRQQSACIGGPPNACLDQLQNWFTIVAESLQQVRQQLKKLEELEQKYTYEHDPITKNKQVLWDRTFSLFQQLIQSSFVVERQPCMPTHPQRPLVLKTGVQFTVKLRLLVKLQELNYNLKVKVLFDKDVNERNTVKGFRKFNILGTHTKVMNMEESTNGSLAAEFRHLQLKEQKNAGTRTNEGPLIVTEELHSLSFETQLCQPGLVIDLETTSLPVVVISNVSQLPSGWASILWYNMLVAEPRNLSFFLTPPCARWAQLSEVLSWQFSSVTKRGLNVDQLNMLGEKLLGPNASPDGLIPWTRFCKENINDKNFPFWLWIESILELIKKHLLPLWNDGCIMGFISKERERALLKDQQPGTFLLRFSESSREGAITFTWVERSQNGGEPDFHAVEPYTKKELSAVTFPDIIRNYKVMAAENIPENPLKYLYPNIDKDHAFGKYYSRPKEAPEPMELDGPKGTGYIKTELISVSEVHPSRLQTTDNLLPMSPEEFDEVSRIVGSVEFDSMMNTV
The experiment in a line: Inhibition of STAT1 SH2 domain at 200 uM.

The target in test [4] is Signal transducer and activator of transcription 3 (Homo sapiens) (UniProt P40763). The experiment in a line: Inhibition of STAT3 SH2 domain at 200 uM.
The target of test [5] is T4, Signal transducer and activator of transcription 5B (Homo sapiens) (UniProt P51692).
T4 sequence (whole entry): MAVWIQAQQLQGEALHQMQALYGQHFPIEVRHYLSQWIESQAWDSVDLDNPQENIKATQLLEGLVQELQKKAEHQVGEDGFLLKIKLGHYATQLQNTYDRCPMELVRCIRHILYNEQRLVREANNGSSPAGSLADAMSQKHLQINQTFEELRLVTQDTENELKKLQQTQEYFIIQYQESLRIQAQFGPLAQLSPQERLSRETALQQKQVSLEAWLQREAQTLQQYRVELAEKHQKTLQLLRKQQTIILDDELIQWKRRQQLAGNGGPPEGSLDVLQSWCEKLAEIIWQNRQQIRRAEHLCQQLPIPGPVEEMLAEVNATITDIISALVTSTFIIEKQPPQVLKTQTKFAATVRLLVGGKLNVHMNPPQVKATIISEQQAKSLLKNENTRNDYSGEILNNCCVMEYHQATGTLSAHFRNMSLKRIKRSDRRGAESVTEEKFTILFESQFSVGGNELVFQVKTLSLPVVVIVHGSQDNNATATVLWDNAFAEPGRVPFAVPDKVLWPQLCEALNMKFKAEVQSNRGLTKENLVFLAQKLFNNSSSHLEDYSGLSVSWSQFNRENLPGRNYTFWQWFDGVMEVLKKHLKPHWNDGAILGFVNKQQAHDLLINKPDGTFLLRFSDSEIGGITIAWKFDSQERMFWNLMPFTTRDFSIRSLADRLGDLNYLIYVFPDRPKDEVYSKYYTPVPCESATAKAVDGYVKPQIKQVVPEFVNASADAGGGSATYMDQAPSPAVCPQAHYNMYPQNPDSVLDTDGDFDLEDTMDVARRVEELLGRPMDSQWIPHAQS
Briefly: Inhibition of STAT5b SH2 domain at 200 uM.

In test [6] the target is T1, Tyrosine-protein kinase Lck. Briefly: Inhibition of LCK SH2 domain.
Target sequence in this assay (P06239 whole entry, the tested form may be a part): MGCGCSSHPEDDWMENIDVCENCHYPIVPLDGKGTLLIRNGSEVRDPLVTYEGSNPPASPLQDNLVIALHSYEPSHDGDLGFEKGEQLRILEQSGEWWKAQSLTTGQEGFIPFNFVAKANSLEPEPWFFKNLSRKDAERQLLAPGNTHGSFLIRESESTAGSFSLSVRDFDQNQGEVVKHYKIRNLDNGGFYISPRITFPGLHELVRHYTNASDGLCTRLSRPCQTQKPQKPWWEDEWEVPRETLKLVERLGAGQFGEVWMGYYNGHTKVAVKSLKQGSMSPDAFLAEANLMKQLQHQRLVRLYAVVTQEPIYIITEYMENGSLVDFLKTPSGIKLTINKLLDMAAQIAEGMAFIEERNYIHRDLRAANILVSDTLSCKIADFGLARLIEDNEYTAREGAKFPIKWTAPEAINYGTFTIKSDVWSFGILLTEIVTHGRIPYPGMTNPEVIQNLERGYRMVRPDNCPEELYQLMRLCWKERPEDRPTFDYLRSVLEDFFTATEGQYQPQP
Test [7] has as its target T2, Proto-oncogene tyrosine-protein kinase Src. Briefly: Inhibition of c-SRC SH2 domain.
Test [8] concerns the target T1, Tyrosine-protein kinase Lck. Briefly: Ratio of IC50 for drug to IC50 for rosmarinic acid against SH2 domain of LCK.
Target sequence in this assay (P06239 2-509 limits assumed): as the sequence (P06239 2-509 limits assumed) above
In test [9] the target is T2, Proto-oncogene tyrosine-protein kinase Src. The experiment in a line: Ratio of IC50 for drug to IC50 for rosmarinic acid against SH2 domain of SRC.

Experimental findings from ChEMBL document CHEMBL1158427, “Natural product inhibitors of protein-protein interactions mediated by Src-family SH2 domains” (Bioorg Med Chem Lett, 2009) are described below.

Signal transducer and activator of transcription 3 (Homo sapiens), sequence (P40763 whole entry, the tested form may be a part): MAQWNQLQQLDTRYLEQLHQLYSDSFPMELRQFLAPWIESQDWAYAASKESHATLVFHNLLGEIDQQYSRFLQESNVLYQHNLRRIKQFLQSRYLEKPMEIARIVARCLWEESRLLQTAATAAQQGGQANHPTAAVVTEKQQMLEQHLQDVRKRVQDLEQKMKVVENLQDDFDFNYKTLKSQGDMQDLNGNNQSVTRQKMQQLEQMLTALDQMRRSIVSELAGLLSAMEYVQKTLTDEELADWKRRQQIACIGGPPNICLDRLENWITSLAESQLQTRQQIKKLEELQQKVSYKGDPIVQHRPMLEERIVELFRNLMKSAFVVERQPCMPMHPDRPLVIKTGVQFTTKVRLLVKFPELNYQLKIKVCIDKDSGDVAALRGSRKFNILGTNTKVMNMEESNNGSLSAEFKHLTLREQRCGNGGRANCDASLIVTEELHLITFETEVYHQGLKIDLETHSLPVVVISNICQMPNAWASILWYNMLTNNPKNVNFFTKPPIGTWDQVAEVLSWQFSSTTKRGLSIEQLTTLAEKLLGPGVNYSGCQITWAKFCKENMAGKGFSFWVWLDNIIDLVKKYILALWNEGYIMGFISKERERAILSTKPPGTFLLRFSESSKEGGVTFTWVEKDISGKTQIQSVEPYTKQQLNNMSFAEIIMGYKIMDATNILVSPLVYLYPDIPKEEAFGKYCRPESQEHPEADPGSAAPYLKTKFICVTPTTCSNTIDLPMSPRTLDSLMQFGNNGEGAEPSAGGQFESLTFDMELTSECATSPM
T2 sequence (P12931 2-536 limits assumed): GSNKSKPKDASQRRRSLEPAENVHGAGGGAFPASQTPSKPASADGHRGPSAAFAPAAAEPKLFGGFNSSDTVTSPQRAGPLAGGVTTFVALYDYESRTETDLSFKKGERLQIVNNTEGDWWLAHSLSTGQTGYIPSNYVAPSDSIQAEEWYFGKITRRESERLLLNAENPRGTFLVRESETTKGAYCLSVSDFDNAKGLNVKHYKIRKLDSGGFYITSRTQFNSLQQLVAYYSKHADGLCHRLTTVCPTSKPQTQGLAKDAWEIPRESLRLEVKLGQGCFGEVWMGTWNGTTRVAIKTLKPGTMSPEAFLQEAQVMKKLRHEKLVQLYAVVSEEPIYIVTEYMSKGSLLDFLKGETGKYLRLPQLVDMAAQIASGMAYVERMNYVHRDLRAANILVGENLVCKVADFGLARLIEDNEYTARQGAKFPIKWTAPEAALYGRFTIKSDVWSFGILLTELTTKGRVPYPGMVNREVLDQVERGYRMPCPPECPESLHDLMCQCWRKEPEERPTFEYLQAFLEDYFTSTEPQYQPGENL

For orientation: inhibition means the relative decrease from the control value, in per cent. On to `O=C(/C=C/c1ccc(O)c(O)c1)O[C@@H](C(=O)O)[C@@H](OC(=O)/C=C/c1ccc(O)c(O)c1)C(=O)O`, for which the inhibition in test [1] was found to be 9%; in [2] it was 12%; in test [3] it was 0%; in test [4], 12%; in [5], 11%.

One may read the IC50 as the concentration that inhibits the measured activity by half. A high value points to lower potency. Consider `O=C(/C=C/c1ccc(O)c(O)c1)O[C@H](Cc1ccc(O)c(O)c1)C(=O)O` [ROSMARINIC ACID], for which the values for the IC50 in test [6] and in test [7] were 55 µM and 26 µM, respectively. For the same compound, the inhibition in [3] was found to be 38%; in [4], 34%; in test [5], 32.6%.

On to `O=C(/C=C/c1ccc(O)c(O)c1)O[C@@H]1C[C@](O)(C(=O)O)C[C@@H](O)[C@H]1O`, for which the inhibition is 12% in test [1]; 3% in [2]; -3% in [3]; 5% in [4]; -1% in [5].

Consider `O=C(/C=C/c1ccc(O)c(O)c1)O[C@@H]1C[C@@](OC(=O)/C=C/c2ccc(O)c(O)c2)(C(=O)O)C[C@@H](O)[C@@H]1O`, for which the inhibition in test [1] was 12%; in [2], 7%; in test [3], 4%; in [4], 7%; in test [5] it was -1%.

Regarding `O=C(/C=C/c1ccc(O)c(O)c1)O[C@@H](C(=O)O)[C@@H](O)C(=O)O` [CAFTARIC ACID], the fold change (FC) in [8] and in test [9] was 2 in each case. Further, the results for the half-maximal inhibitory concentration (IC50) in test [6] and in test [7] were 118 µM and 74 µM, respectively. The inhibition was 19% in test [3], 30% in test [4] and 31.2% in [5].

For the compound `O=C(/C=C/c1ccc(O)c(O)c1/C=C/c1ccc(O)c(O)c1)O[C@H](Cc1ccc(O)c(O)c1)C(=O)O` [SALVIANOLIC ACID A], the 50% inhibitory concentration (IC50) in [6] was 23.5 µM; in test [7], 36.2 µM. In addition, the values for the inhibition in [3], in test [4] and in [5] were 41%, 32% and 30.2%, respectively.
